Results: US20260297060A1, “COMPOUNDS FOR THE DEGRADATION OF MUTANT BRAF” (C4 THERAPEUTICS, INC., priority 2023, published 2026)
Where two headings read alike, the source gives them in different places.

What was measured:
BRAF V600E = biological target: T1, BRAF V600E (Homo sapiens, UniProt P15056+Q96SW2, V600E); assay: BRAF V600E HiBiT Degradation Assay; type: cell-based; settings: A375.10 cells, BRAF V600E
T1 construct: knock-in of the HiBiT tag to the endogenous BRAF V600E locus; host or cells: A375.10 (A375 clonal line, CRISPR HiBiT knock-in at the endogenous BRAF V600E locus)
Outline: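 Endogenous HiBiT knock-in on BRAF V600E in A375 cells (clone A375.10); 11-point half-log series, top 10 μM, 2, 6 or 24 h at 37° C. Lytic HiBiT luminescence, background-subtracted, normalized to DMSO; 4-parameter fit gives DC50, Emax (residual protein) and IP (inflection point).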

A375-NRAS^Q61K cells = assay: CTGlo Cell Viability Assay, A375-NRAS^Q61K (A375.11) cells, 96 hours; type: cell-based, human; settings: A375.11 (A375-NRAS^Q61K) cells; for Emax / CTGlo A375.11 96 hours Emax: lowest % viability achieved
Outline: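 A375 cells carrying BRAF V600E and NRAS Q61K were seeded at 250 cells/well with a 10-point half-log dose series (max 10 μM final). After 96 h at 37 °C, viability was read as ATP luminescence (CellTiter-Glo), background-subtracted and normalized to DMSO (100%). GI50 from 4-parameter fit; Emax is the lowest % viability.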

[1] = 2 hours, inflection point, read-out: HiBiT-Degradation A375.10 BRAF 2 hours IP
[2] = 2 hours, read-out: HiBiT-Degradation A375.10 BRAF 2 hours DC50
[3] = 2 hours, residual protein remaining, read-out: HiBiT-Degradation A375.10 BRAF 2 hours Emax
[4] = 2 hours, residual protein remaining
[5] = HiBiT, 24 hours, read-out: HiBiT-Degradation A375.10 BRAF 24 hours DC50
[6] = HiBiT, 24 hours, read-out: HiBiT-Degradation A375.10 BRAF 24 hours IP

T1 sequence (P15056 whole entry V600E): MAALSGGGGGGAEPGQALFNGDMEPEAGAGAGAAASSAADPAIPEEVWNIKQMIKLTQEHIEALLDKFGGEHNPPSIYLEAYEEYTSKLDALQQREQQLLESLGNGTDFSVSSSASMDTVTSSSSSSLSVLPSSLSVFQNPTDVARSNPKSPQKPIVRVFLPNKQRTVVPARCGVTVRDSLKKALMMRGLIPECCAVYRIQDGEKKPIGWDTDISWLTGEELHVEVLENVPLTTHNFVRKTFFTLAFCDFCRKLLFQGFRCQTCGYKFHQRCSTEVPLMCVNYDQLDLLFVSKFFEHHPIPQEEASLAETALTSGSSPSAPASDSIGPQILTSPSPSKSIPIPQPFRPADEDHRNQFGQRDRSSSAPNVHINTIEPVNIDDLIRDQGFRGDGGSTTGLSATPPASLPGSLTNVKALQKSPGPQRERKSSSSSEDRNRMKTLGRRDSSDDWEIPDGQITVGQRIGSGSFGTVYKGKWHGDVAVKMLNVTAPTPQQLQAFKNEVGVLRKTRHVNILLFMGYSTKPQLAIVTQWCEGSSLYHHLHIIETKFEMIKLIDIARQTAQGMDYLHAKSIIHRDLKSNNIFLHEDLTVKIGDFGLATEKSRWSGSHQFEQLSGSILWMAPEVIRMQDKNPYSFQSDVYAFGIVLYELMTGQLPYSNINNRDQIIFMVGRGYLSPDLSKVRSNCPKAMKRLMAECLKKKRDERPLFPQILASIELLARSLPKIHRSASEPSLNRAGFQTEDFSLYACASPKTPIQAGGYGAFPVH
T1 sequence (Q96SW2 whole entry): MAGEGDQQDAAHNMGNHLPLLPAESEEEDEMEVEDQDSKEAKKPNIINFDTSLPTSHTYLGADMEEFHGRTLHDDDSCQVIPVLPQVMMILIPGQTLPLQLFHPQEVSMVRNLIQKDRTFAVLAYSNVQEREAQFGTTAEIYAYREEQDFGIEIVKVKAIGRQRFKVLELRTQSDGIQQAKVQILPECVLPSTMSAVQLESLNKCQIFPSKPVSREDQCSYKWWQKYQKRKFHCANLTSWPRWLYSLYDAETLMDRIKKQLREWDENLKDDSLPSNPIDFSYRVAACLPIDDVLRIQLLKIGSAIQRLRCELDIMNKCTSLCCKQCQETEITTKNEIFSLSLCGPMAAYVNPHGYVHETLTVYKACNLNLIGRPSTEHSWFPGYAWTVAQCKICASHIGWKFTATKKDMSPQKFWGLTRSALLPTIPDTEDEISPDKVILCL
T1 sequence (Q16531 whole entry partner): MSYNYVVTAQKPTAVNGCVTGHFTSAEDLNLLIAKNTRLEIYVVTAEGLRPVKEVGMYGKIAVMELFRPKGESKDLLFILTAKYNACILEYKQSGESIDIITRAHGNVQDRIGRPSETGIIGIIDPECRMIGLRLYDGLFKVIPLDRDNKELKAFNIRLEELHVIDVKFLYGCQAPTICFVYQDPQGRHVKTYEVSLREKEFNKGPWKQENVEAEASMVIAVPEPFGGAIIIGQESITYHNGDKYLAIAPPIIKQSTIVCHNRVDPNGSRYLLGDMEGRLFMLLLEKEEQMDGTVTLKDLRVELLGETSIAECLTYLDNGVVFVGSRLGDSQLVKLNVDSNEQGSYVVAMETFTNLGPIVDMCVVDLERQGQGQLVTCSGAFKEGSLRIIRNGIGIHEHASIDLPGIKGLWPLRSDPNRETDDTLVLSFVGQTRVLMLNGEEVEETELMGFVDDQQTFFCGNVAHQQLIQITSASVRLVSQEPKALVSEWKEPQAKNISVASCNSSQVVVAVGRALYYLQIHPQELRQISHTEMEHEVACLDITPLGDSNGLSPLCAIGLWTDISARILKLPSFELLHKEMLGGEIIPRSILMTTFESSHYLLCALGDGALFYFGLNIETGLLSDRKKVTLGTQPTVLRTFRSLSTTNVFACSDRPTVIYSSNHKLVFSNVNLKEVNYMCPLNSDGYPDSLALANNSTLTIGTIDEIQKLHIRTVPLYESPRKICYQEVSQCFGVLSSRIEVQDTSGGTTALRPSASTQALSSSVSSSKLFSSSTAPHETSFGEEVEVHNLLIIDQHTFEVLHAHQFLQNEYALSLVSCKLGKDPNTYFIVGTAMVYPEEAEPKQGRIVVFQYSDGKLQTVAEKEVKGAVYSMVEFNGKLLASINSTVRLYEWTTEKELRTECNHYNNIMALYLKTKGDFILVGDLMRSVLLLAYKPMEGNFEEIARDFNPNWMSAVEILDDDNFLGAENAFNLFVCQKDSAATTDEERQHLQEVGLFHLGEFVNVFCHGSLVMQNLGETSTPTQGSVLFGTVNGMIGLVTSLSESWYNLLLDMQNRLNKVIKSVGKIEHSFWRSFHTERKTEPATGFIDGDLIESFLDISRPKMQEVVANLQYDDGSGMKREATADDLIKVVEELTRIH

Row | SMILES | DC50 (BRAF V600E; [1]) [nM] | DC50 (BRAF V600E; [2]) [nM] | Emax (BRAF V600E; [3]) [%] | GI50 (A375-NRAS^Q61K cells; Homo sapiens, 96 h) [nM] | Emax (A375-NRAS^Q61K cells; Homo sapiens, 96 h) [%] | other results
1 | CCN(C)S(=O)(=O)Nc1ccc(F)c(Oc2ccc3ncn(C4CC5(CCN(C6CCN(c7cc8c(cc7F)c(N7CCC(=O)NC7=O)nn8C)CC6(F)F)CC5)C4)c(=O)c3c2)c1C#N (stereo not shown) [Compound 253, 6-[2-cyano-3-[[ethyl(methyl)sulfamoyl]amino]-6-fluoro-phenoxy]-3-[7-[1-[3-(2,4-dioxohexahydropyrimidin-1-yl)-5-fluoro-1-methyl-indazol-6-yl]-3,3-difluoro-4-piperidyl]-7-azaspiro[3.5]nonan-2-yl]-4-oxo-quinazoline] | < 1000 | > 10000 | 50 to 90 | 1000 to 10000 | < 50 | 
2 | Cn1nc(N2CCC(=O)NC2=O)c2cc(F)c(N3CC4(CC(N5CCC6(CC5)C[C@@H](n5cnc7ccc(Oc8c(F)ccc(NS(=O)(=O)N9CCOCC9)c8C#N)cc7c5=O)CO6)C4)C3)cc21 [Compound 242, N-[2-cyano-3-[3-[(3R)-8-[2-[3-(2,4-dioxohexahydropyrimidin-1-yl)-5-fluoro-1-methyl-indazol-6-yl]-2-azaspiro[3.3]heptan-6-yl]-1-oxa-8-azaspiro[4.5]decan-3-yl]-4-oxo-quinazolin-6-yl]oxy-4-fluoro-phenyl]morpholine-4-sulfonamide] | < 1000 | 1000 to 10000 | 50 to 90 | > 10000 | 50 to 90 | 
3 | CCN(C)S(=O)(=O)Nc1ccc(F)c(Oc2ccc3ncn(C4CC5(CCN(C6COC7(CCN(c8cc9c(cc8F)c(N8CCC(=O)NC8=O)nn9C)CC7)C6)CC5)C4)c(=O)c3c2)c1C#N (stereo not shown) [Compound 216] | < 1000 | < 1000 | < 50 | < 1000 | 50 to 90 | 
4 | CCN(C)S(=O)(=O)Nc1ccc(F)c(Oc2ccc3ncn(C4CC5(CCN(C6CCC(c7cc8c(cc7F)c(N7CCC(=O)NC7=O)nn8C)CC6F)CC5)C4)c(=O)c3c2)c1F (single isomer, unassigned) [Compound 185] | < 1000 | > 10000 |  |  |  | HiBiT-Degradation A375.10 BRAF 2 hours Emax (BRAF V600E; [4]): ** (<90% and >50%); GI50 (A375-NRAS^Q61K cells): > 10000 nM; CTGlo A375.11 96 hours Emax (A375-NRAS^Q61K cells): ** (<90% and >50%)
5 | CCN(C)S(=O)(=O)Nc1ccc(F)c(Oc2ccc3ncn(C4CCC5(CC4)CCN(C4CCC(c6cc7c(cc6F)c(N6CCC(=O)NC6=O)nn7C)CC4)CC5)c(=O)c3c2)c1C#N (single isomer, unassigned) [Compound 12] | < 1000 | < 1000 | < 50 |  | < 50 | GI50 (A375-NRAS^Q61K cells): < 1000 nM
6 | CCN(C)S(=O)(=O)Nc1ccc(F)c(Oc2ccc3ncn(CCC4CCN(C5CCC(c6cc7c(cc6F)c(N6CCC(=O)NC6=O)nn7C)CC5)CC4)c(=O)c3c2)c1C#N (single isomer, unassigned) [Compound 138, 6-[2-cyano-3-[[ethyl(methyl)sulfamoyl]amino]-6-fluoro-phenoxy]-3-[2-[1-[4-[3-(2,4-dioxohexahydropyrimidin-1-yl)-5-fluoro-1-methyl-indazol-6-yl]cyclohexyl]-4-piperidyl]ethyl]-4-oxo-quinazoline] | < 1000 | 1000 to 10000 |  |  |  | HiBiT-Degradation A375.10 BRAF 2 hours Emax (BRAF V600E; [4]): ** (<90% and >50%); GI50 (A375-NRAS^Q61K cells): 1000 to 10000 nM; CTGlo A375.11 96 hours Emax (A375-NRAS^Q61K cells): ** (<90% and >50%)
7 | CN(CCO)S(=O)(=O)Nc1ccc(F)c(Oc2ccc3ncn(C4CC5(CCN(C6CCC(c7cc8c(cc7F)c(N7CCC(=O)NC7=O)nn8C)CC6)CC5)C4)c(=O)c3c2)c1C#N (single isomer, unassigned) [Compound 82, 6-[2-cyano-6-fluoro-3-[[2-hydroxyethyl(methyl)sulfamoyl]amino]phenoxy]-3-[7-[4-[3-(2,4-dioxohexahydropyrimidin-1-yl)-5-fluoro-1-methyl-indazol-6-yl]cyclohexyl]-7-azaspiro[3.5]nonan-2-yl]-4-oxo-quinazoline] | < 1000 | 1000 to 10000 |  |  |  | HiBiT-Degradation A375.10 BRAF 2 hours Emax (BRAF V600E; [4]): ** (<90% and >50%); DC50 (BRAF V600E; 6 hours, inflection point, read-out: HiBiT-Degradation A375.10 BRAF 6 hours IP): < 1000 nM; DC50 (BRAF V600E; 6 hours, read-out: HiBiT-Degradation A375.10 BRAF 6 hours DC50): < 1000 nM; HiBiT-Degradation A375.10 BRAF 6 hours Emax (BRAF V600E; 6 hours, residual protein remaining): *** (<=50%); HiBiT-Degradation A375.10 BRAF 24 hours Emax (BRAF V600E; HiBiT, 24 hours): *** (<=50%); DC50 (BRAF V600E; [5]): < 1000 nM; DC50 (BRAF V600E; [6]): < 1000 nM; GI50 (A375-NRAS^Q61K cells): 1000 to 10000 nM; CTGlo A375.11 96 hours Emax (A375-NRAS^Q61K cells): ** (<90% and >50%)
8 | CCN(C)S(=O)(=O)Nc1ccc(F)c(Oc2ccc3ncn(C4[C@H]5CN(C6CCC(c7cc8c(cc7F)c(N7CCC(=O)NC7=O)nn8C)CC6)C[C@@H]45)c(=O)c3c2)c1C#N (single isomer, unassigned) [Compound 240] | < 1000 | < 1000 | < 50 | 1000 to 10000 | 50 to 90 | 
9 | CCN(C)S(=O)(=O)Nc1ccc(F)c(Oc2ccc3ncn(C4CCC(N5CC6(CCN(c7cc8c(cc7F)c(N7CCC(=O)NC7=O)nn8C)CC6)C5)CC4)c(=O)c3c2)c1C#N (single isomer, unassigned) [Compound 221, 6-[2-cyano-3-[[ethyl(methyl)sulfamoyl]amino]-6-fluoro-phenoxy]-3-[4-[7-[3-(2,4-dioxohexahydropyrimidin-1-yl)-5-fluoro-1-methyl-indazol-6-yl]-2,7-diazaspiro[3.5]nonan-2-yl]cyclohexyl]-4-oxo-quinazoline] | < 1000 | < 1000 | < 50 | 1000 to 10000 | 50 to 90 | 
10 | CCN(C)S(=O)(=O)Nc1ccc(F)c(Oc2ccc3ncnc(OC4CC5(CCN(C6CCC(c7cc8c(cc7F)c(N7CCC(=O)NC7=O)nn8C)CC6)CC5)C4)c3c2)c1C#N (single isomer, unassigned) [Compound 243, 6-[2-cyano-3-[[ethyl(methyl)sulfamoyl]amino]-6-fluoro-phenoxy]-4-[[7-[4-[3-(2,4-dioxohexahydropyrimidin-1-yl)-5-fluoro-1-methyl-indazol-6-yl]cyclohexyl]-7-azaspiro[3.5]nonan-2-yl]oxy]quinazoline] | < 1000 | 1000 to 10000 | 50 to 90 | 1000 to 10000 | 50 to 90 | 
11 | CO[C@H]1CCN(S(=O)(=O)Nc2ccc(F)c(Oc3ccc4ncn([C@H]5COC6(CCN(C7CCC(c8ccc(NC9CCC(=O)NC9=O)cc8F)CC7)CC6)C5)c(=O)c4c3)c2C#N)C1 (single isomer, unassigned) [Compound 140] | < 1000 | < 1000 | < 50 | < 1000 | < 50 | 
12 | CCN(C)S(=O)(=O)Nc1ccc(F)c(Oc2ccc3ncn(C4CC5(C4)CN(CC4CCN(c6cc7c(cc6F)c(N6CCC(=O)NC6=O)nn7C)CC4)C5)c(=O)c3c2)c1C#N [Compound 296, 6-[2-cyano-3-[[ethyl(methyl)sulfamoyl]amino]-6-fluoro-phenoxy]-3-[2-[[1-[3-(2,4-dioxohexahydropyrimidin-1-yl)-5-fluoro-1-methyl-indazol-6-yl]-4-piperidyl]methyl]-2-azaspiro[3.3]heptan-6-yl]-4-oxo-quinazoline] | < 1000 | < 1000 | 50 to 90 | < 1000 | 50 to 90 | DC50 (BRAF V600E; [5]): < 1000 nM; Emax (BRAF V600E; HiBiT, 24 hours, read-out: HiBiT-Degradation A375.10 BRAF 24 hours Emax): < 50%; DC50 (BRAF V600E; [6]): < 1000 nM
13 | CCN(C)S(=O)(=O)Nc1ccc(F)c(Oc2ccc3ncn(C4CCN(C5CC6(CCN(c7cc8c(cc7F)c(N7CCC(=O)NC7=O)nn8C)CC6)C5)CC4)c(=O)c3c2)c1C#N [Compound 274, 6-[2-cyano-3-[[ethyl(methyl)sulfamoyl]amino]-6-fluoro-phenoxy]-3-[1-[7-[3-(2,4-dioxohexahydropyrimidin-1-yl)-5-fluoro-1-methyl-indazol-6-yl]-7-azaspiro[3.5]nonan-2-yl]-4-piperidyl]-4-oxo-quinazoline] | < 1000 | < 1000 | < 50 | < 1000 | < 50 | 
14 | Cn1nc(N2CCC(=O)NC2=O)c2cc(F)c(C3CCC(N4CCC5(CC4)CC(c4cnc6ccc(Oc7c(F)ccc(NS(=O)(=O)C8CCCC8)c7C#N)cc6n4)C5)CC3)cc21 (single isomer, unassigned) [Compound 270, N-[2-cyano-3-[3-[7-[4-[3-(2,4-dioxohexahydropyrimidin-1-yl)-5-fluoro-1-methyl-indazol-6-yl]cyclohexyl]-7-azaspiro[3.5]nonan-2-yl]quinoxalin-6-yl]oxy-4-fluoro-phenyl]cyclopentanesulfonamide] |  |  | < 50 | < 1000 | 50 to 90 | DC50 (BRAF V600E; read-out: HiBiT-Degradation A375.10 BRAF 2 hours DC50, 2 hours): < 1000 nM; DC50 (BRAF V600E; read-out: HiBiT-Degradation A375.10 BRAF 2 hours IP, 2 hours, inflection point): < 1000 nM
